Laboratory results published in BindingDB's records for doi:10.7270/Q2DF6PMF (Nmmlsc, 2007).
Where a name gives a salt, the structure may show the parent alone.

Target: T1, N-formyl peptide receptor 2 (Homo sapiens, UniProt P25090)
T1 sequence (P25090 whole entry): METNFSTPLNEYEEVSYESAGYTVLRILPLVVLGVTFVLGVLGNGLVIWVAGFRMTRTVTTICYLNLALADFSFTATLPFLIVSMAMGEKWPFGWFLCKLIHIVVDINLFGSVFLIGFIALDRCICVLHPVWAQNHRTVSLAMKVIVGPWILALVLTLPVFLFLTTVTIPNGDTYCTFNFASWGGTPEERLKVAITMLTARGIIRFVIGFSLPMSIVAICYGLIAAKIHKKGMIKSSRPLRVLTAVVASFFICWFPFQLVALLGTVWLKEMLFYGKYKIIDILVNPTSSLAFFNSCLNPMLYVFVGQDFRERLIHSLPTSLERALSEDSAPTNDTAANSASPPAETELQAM
Assay: concentration-dependent FPRL1 ligand displacement – cell-based, FPR counter-screen, fluorescent ligand, dose response (AID 520)
Details: not given

Question: How did the IC50 turn out when `CC1Cc2cc(C(=O)C3C(=O)C(=O)N(CCN4CCOCC4)C3c3ccccc3F)ccc2O1` (stereo not drawn) [(4E)-5-(2-fluorophenyl)-4-[(2-methyl-2,3-dihydro-1-benzofuran-5-yl)-oxidanyl-methylidene]-1-(2-morpholin-4-ylethyl)pyrrolidine-2,3-dione] was run?
Answer: The IC50 was > 66.7 µM.

Question: And the Ki?
Answer: Its Ki is > 40.3 µM.

Question: With `Cc1ccc(C(=O)C2C(=O)C(=O)N(c3cc(C)on3)C2c2cccc(Br)c2)cc1` (stereo not drawn) [(4E)-5-(3-bromophenyl)-1-(5-methyl-1,2-oxazol-3-yl)-4-[(4-methylphenyl)-oxidanyl-methylidene]pyrrolidine-2,3-dione] as the compound, how does the IC50 read?
Answer: The IC50 was > 66.7 µM.

Question: And the Ki?
Answer: Its Ki is > 40.3 µM.

Question: With `Cc1cc(N2C(=O)C(=O)C(C(=O)c3ccc(F)cc3)C2c2cccc(Br)c2)no1` (stereo not drawn) [(4E)-5-(3-bromophenyl)-4-[(4-fluorophenyl)-hydroxy-methylene]-1-(5-methylisoxazol-3-yl)pyrrolidine-2,3-quinone] as the compound, how does the IC50 read?
Answer: The IC50 was > 66.7 µM.

Question: And the Ki?
Answer: The Ki was > 40.3 µM.

Question: How did the IC50 turn out when `Cc1ccc(C(=O)C2C(=O)C(=O)N(CC(C)O)C2c2ccc(N(C)C)cc2)cc1` (stereo not drawn) [(4E)-5-[4-(dimethylamino)phenyl]-1-(2-hydroxypropyl)-4-[hydroxy(p-tolyl)methylene]pyrrolidine-2,3-quinone] was run?
Answer: Its IC50 is > 66.7 µM.

Question: And the Ki?
Answer: The Ki was > 40.3 µM.

Question: Which results are given for `CCOc1cccc(C(=O)C2C(=O)C(=O)N(Cc3ccco3)C2c2ccncc2)c1` (stereo not drawn) [(4Z)-1-(2-furfuryl)-4-[hydroxy(m-phenetyl)methylene]-5-(4-pyridyl)pyrrolidine-2,3-quinone]?
Answer: IC50: > 66.7 µM; Ki: > 40.3 µM

Question: With `COc1ccccc1C1C(C(=O)c2ccccc2)C(=O)C(=O)N1CCO` (stereo not drawn) [(4Z)-1-(2-hydroxyethyl)-4-[hydroxy(phenyl)methylene]-5-(2-methoxyphenyl)pyrrolidine-2,3-quinone] as the compound, how does the IC50 read?
Answer: The IC50 was > 66.7 µM.

Question: And the Ki?
Answer: Its Ki is > 40.3 µM.

Question: What does the source list for `CCOc1ccc(C(=O)C2C(=O)C(=O)N(c3nc(C)c(C)s3)C2c2ccco2)cc1` (stereo not drawn) [(4Z)-1-(4,5-dimethyl-1,3-thiazol-2-yl)-4-[(4-ethoxyphenyl)-hydroxymethylidene]-5-(furan-2-yl)pyrrolidine-2,3-dione]?
Answer: IC50: > 66.7 µM; Ki: > 40.3 µM

Question: How did the IC50 turn out when `COc1ccc(C(=O)C2C(=O)C(=O)N(c3nc(C)c(C)s3)C2c2ccco2)cc1` (stereo not drawn) [(4Z)-1-(4,5-dimethyl-1,3-thiazol-2-yl)-5-(furan-2-yl)-4-[(4-methoxyphenyl)-oxidanyl-methylidene]pyrrolidine-2,3-dione] was run?
Answer: The IC50 was > 66.7 µM.

Question: What about the Ki of the same compound?
Answer: The Ki was > 40.3 µM.

Question: What does the source list for `CCOc1cccc(C(=O)C2C(=O)C(=O)N(CCOC)C2c2ccc(C)o2)c1` (stereo not drawn) [(4Z)-4-[(3-ethoxyphenyl)-hydroxymethylidene]-1-(2-methoxyethyl)-5-(5-methyl-2-furanyl)pyrrolidine-2,3-dione]?
Answer: IC50: > 66.7 µM; Ki: > 40.3 µM

Question: Which IC50 does the source give for `CCOc1cccc(C(=O)C2C(=O)C(=O)N(Cc3cccnc3)C2c2ccco2)c1` (stereo not drawn) [(4Z)-4-[(3-ethoxyphenyl)-hydroxymethylidene]-5-(2-furanyl)-1-(3-pyridinylmethyl)pyrrolidine-2,3-dione] here?
Answer: The IC50 was > 66.7 µM.

Question: What about the Ki of the same compound?
Answer: Its Ki is > 40.3 µM.

Question: With `Cc1ccc(C2C(C(=O)c3ccc(Br)cc3)C(=O)C(=O)N2Cc2ccco2)o1` (stereo not drawn) [(4Z)-4-[(4-bromophenyl)-hydroxy-methylene]-1-(2-furfuryl)-5-(5-methyl-2-furyl)pyrrolidine-2,3-quinone] as the compound, how does the IC50 read?
Answer: The IC50 was > 66.7 µM.

Question: What about the Ki of the same compound?
Answer: The Ki was > 40.3 µM.

Question: Which IC50 does the source give for `Cc1ccc(C2C(C(=O)c3ccc(Cl)cc3)C(=O)C(=O)N2CC2CCCO2)o1` (stereo not drawn) [(4Z)-4-[(4-chlorophenyl)-hydroxy-methylene]-5-(5-methyl-2-furyl)-1-(tetrahydrofurfuryl)pyrrolidine-2,3-quinone] here?
Answer: The IC50 was > 66.7 µM.

Question: And the Ki?
Answer: Its Ki is > 40.3 µM.

Question: Which IC50 does the source give for `CCOc1ccc(C(=O)C2C(=O)C(=O)N(CC3CCCO3)C2c2ccco2)cc1` (stereo not drawn) [(4Z)-4-[(4-ethoxyphenyl)-hydroxymethylidene]-5-(2-furanyl)-1-(2-oxolanylmethyl)pyrrolidine-2,3-dione] here?
Answer: Its IC50 is > 66.7 µM.

Question: And the Ki?
Answer: Its Ki is > 40.3 µM.

Question: Which results are given for `CCOc1ccc(C(=O)C2C(=O)C(=O)N(CC3CCCO3)C2c2ccc(C)o2)cc1` (stereo not drawn) [(4Z)-4-[(4-ethoxyphenyl)-hydroxymethylidene]-5-(5-methyl-2-furanyl)-1-(2-oxolanylmethyl)pyrrolidine-2,3-dione]?
Answer: IC50: > 66.7 µM; Ki: > 40.3 µM

Question: How did the IC50 turn out when `COc1ccc(C(=O)C2C(=O)C(=O)N(CCN3CCOCC3)C2c2ccc(C)cc2)cc1` (stereo not drawn) [(4Z)-4-[(4-methoxyphenyl)-oxidanyl-methylidene]-5-(4-methylphenyl)-1-(2-morpholin-4-ylethyl)pyrrolidine-2,3-dione] was run?
Answer: Its IC50 is > 66.7 µM.

Question: What about the Ki of the same compound?
Answer: The Ki was > 40.3 µM.

Question: For `Cc1ccc(C(=O)C2C(=O)C(=O)N(CCN3CCOCC3)C2c2cccnc2)cc1` (stereo not drawn) [(4Z)-4-[(4-methylphenyl)-oxidanyl-methylidene]-1-(2-morpholin-4-ylethyl)-5-pyridin-3-yl-pyrrolidine-2,3-dione], which IC50 is on record?
Answer: Its IC50 is > 66.7 µM.

Question: And the Ki?
Answer: Its Ki is > 40.3 µM.

Question: How did the IC50 turn out when `COc1ccccc1C1C(C(=O)c2ccccc2)C(=O)C(=O)N1CC(C)O` (stereo not drawn) [(4Z)-4-[hydroxy(phenyl)methylene]-1-(2-hydroxypropyl)-5-(2-methoxyphenyl)pyrrolidine-2,3-quinone] was run?
Answer: Its IC50 is > 66.7 µM.

Question: And the Ki?
Answer: Its Ki is > 40.3 µM.

Question: How did the IC50 turn out when `COc1ccccc1C1C(C(=O)c2ccccc2)C(=O)C(=O)N1CC(C)C` (stereo not drawn) [(4Z)-4-[hydroxy(phenyl)methylene]-1-isobutyl-5-(2-methoxyphenyl)pyrrolidine-2,3-quinone] was run?
Answer: The IC50 was > 66.7 µM.

Question: What about the Ki of the same compound?
Answer: Its Ki is > 40.3 µM.

Question: What does the source list for `Cc1ccc(C2C(C(=O)c3cnn(-c4ccccc4)c3C)C(=O)C(=O)N2CCN2CCOCC2)o1` (stereo not drawn) [(4Z)-4-[hydroxy-(5-methyl-1-phenyl-4-pyrazolyl)methylidene]-5-(5-methyl-2-furanyl)-1-[2-(4-morpholinyl)ethyl]pyrrolidine-2,3-dione]?
Answer: IC50: > 66.7 µM; Ki: > 40.3 µM

Question: With `COc1ccc(C2C(C(=O)c3ccccc3)C(=O)C(=O)N2CC(C)O)c(OC)c1` (stereo not drawn) [(4Z)-5-(2,4-dimethoxyphenyl)-4-[hydroxy(phenyl)methylene]-1-(2-hydroxypropyl)pyrrolidine-2,3-quinone] as the compound, how does the IC50 read?
Answer: Its IC50 is > 66.7 µM.

Question: And the Ki?
Answer: Its Ki is > 40.3 µM.

Question: What does the source list for `COc1ccc(OC)c(C2C(C(=O)c3ccccc3)C(=O)C(=O)N2Cc2ccco2)c1` (stereo not drawn) [(4Z)-5-(2,5-dimethoxyphenyl)-1-(2-furanylmethyl)-4-[hydroxy(phenyl)methylidene]pyrrolidine-2,3-dione]?
Answer: IC50: > 66.7 µM; Ki: > 40.3 µM

Question: For `COc1cccc(C(=O)C2C(=O)C(=O)N(Cc3cccnc3)C2c2ccco2)c1` (stereo not drawn) [(4Z)-5-(2-furanyl)-4-[hydroxy-(3-methoxyphenyl)methylidene]-1-(3-pyridinylmethyl)pyrrolidine-2,3-dione], which IC50 is on record?
Answer: Its IC50 is > 66.7 µM.

Question: What about the Ki of the same compound?
Answer: Its Ki is > 40.3 µM.

Question: With `CCN1C(=O)/C(=C2\SC(=S)N(CCCOC)C2=O)c2ccccc21` [(5Z)-5-(1-ethyl-2-keto-indolin-3-ylidene)-3-(3-methoxypropyl)-2-thioxo-thiazolidin-4-one] as the compound, how does the IC50 read?
Answer: Its IC50 is > 66.7 µM.

Question: With `O=C1Nc2ccccc2/C1=C1/SC(=S)N(CC2CCCO2)C1=O` (stereo not drawn) [(5Z)-5-(2-ketoindolin-3-ylidene)-3-(tetrahydrofurfuryl)-2-thioxo-thiazolidin-4-one] as the compound, how does the IC50 read?
Answer: Its IC50 is > 66.7 µM.

Question: What about the Ki of the same compound?
Answer: Its Ki is > 40.3 µM.

Question: Which IC50 does the source give for `CCOC(=O)c1c(C)[nH]c(C=Nc2ccccc2)c1O` [(5Z)-5-(anilinomethylidene)-2-methyl-4-oxo-1H-pyrrole-3-carboxylic acid ethyl ester] here?
Answer: The IC50 was > 66.7 µM.

Question: Which results are given for `C=C(c1ccc(Br)cc1)c1sc(N2CCCC2)nc1O` [(5Z)-5-[1-(4-bromophenyl)ethylidene]-2-(1-pyrrolidinyl)-4-thiazolone]?
Answer: IC50: > 66.7 µM; Ki: > 40.3 µM

Question: How did the IC50 turn out when `COc1cccc2c1C(=O)c1c(O)c3c(c(O)c1C2=O)C[C@@](O)(C(C)=O)C[C@@H]3O[C@H]1C[C@H](N)[C@H](O)[C@H](C)O1` [(7S,9S)-9-acetyl-7-[(2R,4S,5S,6S)-4-amino-5-hydroxy-6-methyloxan-2-yl]oxy-6,9,11-trihydroxy-4-methoxy-8,10-dihydro-7H-tetracene-5,12-dione;hydrochloride] was run?
Answer: Its IC50 is 25.1 µM.

Question: How did the IC50 turn out when `O=C(Cn1cnc2c(cnn2-c2ccc(F)cc2)c1=O)OCc1ccccc1` [(phenylmethyl) 2-[1-(4-fluorophenyl)-4-oxidanylidene-pyrazolo[3,4-d]pyrimidin-5-yl]ethanoate] was run?
Answer: Its IC50 is > 66.7 µM.

Question: For `CN(C)c1nc(N(C)C)nc(N(C)C)n1` [ALTRETAMINE], which IC50 is on record?
Answer: The IC50 was > 66.7 µM.

Question: With `CCN(CCCc1ccccc1)CCCc1ccccc1` [ALVERINE CITRATE SALT] as the compound, how does the IC50 read?
Answer: Its IC50 is > 66.7 µM.

Question: `CC1(C)S[C@@H]2[C@H](NC(=O)C(C(=O)O)c3ccccc3)C(=O)N2[C@H]1C(=O)O` (stereo partly drawn) [CARBENICILLIN DISODIUM SALT] was tested. Which IC50 did it give?
Answer: Its IC50 is > 66.7 µM.

Question: How did the IC50 turn out when `COc1ccccc1NC(=O)CSc1nnc(Cn2nnc(-c3ccccc3)n2)n1-c1ccccc1` [MLS000032410] was run?
Answer: Its IC50 is > 66.7 µM.

Question: How did the IC50 turn out when `Cc1[nH]n2c(=O)c3c(nc2c1-c1ccc(Cl)cc1)CCC3` [MLS000034815] was run?
Answer: The IC50 was > 66.7 µM.

Question: With `COc1ccc(CN(C(=O)c2ccccc2OC)C2CCS(=O)(=O)C2)cc1` (stereo not drawn) [MLS000041347] as the compound, how does the IC50 read?
Answer: Its IC50 is > 66.7 µM.

Question: `COc1ccc(NC(=O)C(c2ccc(C)cc2)N(C)C(=O)c2cnccn2)cc1` (stereo not drawn) [MLS000044155] was tested. Which IC50 did it give?
Answer: The IC50 was > 66.7 µM.

Question: `COc1ccc(-c2nnc(Nc3nc4c(OC)cccc4s3)o2)cc1` [MLS000045458] was tested. Which IC50 did it give?
Answer: Its IC50 is > 66.7 µM.

Question: Which IC50 does the source give for `O=c1cc(N2CCc3ccccc32)[nH]c(=O)n1Cc1ccc(F)cc1` [MLS000045863] here?
Answer: Its IC50 is > 66.7 µM.

Question: For `COc1ccc(-c2cn3cccnc3n2)cc1NC(=O)C1CC1` [MLS000045944], which IC50 is on record?
Answer: The IC50 was 7.6 µM.

Question: `COc1ccc(-c2cn3cccnc3n2)cc1NC(=O)C1CCCC1` [MLS000045945] was tested. Which IC50 did it give?
Answer: Its IC50 is > 66.7 µM.

Question: `Cc1ccc(NC(=O)c2oc3ccc(S(=O)(=O)N4CCOCC4)cc3c2C)cc1C` [MLS000046288] was tested. Which IC50 did it give?
Answer: The IC50 was > 66.7 µM.

Question: Which IC50 does the source give for `O=C(NCCCN1CCN(c2ccc(F)cc2)CC1)c1cccc(N2CCCC2=O)c1` [MLS000046779] here?
Answer: Its IC50 is > 66.7 µM.

Question: Which IC50 does the source give for `CCOC(=O)Nc1ccc(OC)cc1S(=O)(=O)N1CCCCC1` [MLS000048808] here?
Answer: The IC50 was > 66.7 µM.

Same assay, conditions: inactive by the depositor's call

Question: How did the IC50 turn out when `CCCC(=O)Nc1cc(-c2cn3cccnc3n2)ccc1OC` [MLS000045942] was run?
Answer: The IC50 was 22.8 µM.

Question: How did the IC50 turn out when `COc1ccc(-c2cn3cccnc3n2)cc1NC(=O)CC(C)C` [MLS000045943] was run?
Answer: Its IC50 is 45 µM.
